# Measured values from patent US9738634B2, “Heterocyclic amide compound and herbicide” (SYNGENTA PARTICIPATIONS AG, priority 2013, dated 2017).
# Columns and labels:
# Assay type in all cases: in vivo
# Settings in all cases: treatment dosage 320 g/ha
# barnyard grass [1] = experiment: Test Example 3: weedkilling efficacy through soil treatment; F: barnyard grass
# How it was run: (§1)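 Crop and weed responses were judged three weeks after a uniform surface spray of the water-diluted emulsion at the given g/ha rate. Seeds sat beneath about 1.5 cm of sterilized diluvial soil, and boxes stood in a greenhouse at 25 to 30° C.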
# directly sown rice [2] = experiment: Test Example 4: foliar treatment, effect on crop; b: directly sown rice
# How it was run: (§2)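 Seeds are spot-sown into sterilized diluvial soil and covered with about 1.5 cm of soil. After 14 days' greenhouse growth at 25 to 30° C, plants are sprayed on stems and leaves with diluted emulsion at the stated g/ha rate, then scored at 3 weeks.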
# soybean [3] = experiment: Test Example 3: soil treatment, effect on crop; d: soybean
# How it was run: as §1
# birds-eye speedwell [4] = experiment: Test Example 3: weedkilling efficacy through soil treatment; p: birds-eye speedwell
# How it was run: as §1
# crabgrass [5] = experiment: Test Example 3: weedkilling efficacy through soil treatment; D: crabgrass
# How it was run: as §1
# wild oat [6] = experiment: Test Example 4: weedkilling efficacy by foliar treatment; G: wild oat
# How it was run: as §2
# corn [7] = experiment: Test Example 4: foliar treatment, effect on crop; c: corn
# How it was run: as §2
# Italian ryegrass [8] = experiment: Test Example 4: weedkilling efficacy by foliar treatment; I: Italian ryegrass
# How it was run: as §2
# corn [9] = experiment: Test Example 3: soil treatment, effect on crop; c: corn
# How it was run: as §1
# common wind-grass [10] = experiment: Test Example 4: weedkilling efficacy by foliar treatment; J: common wind-grass
# How it was run: as §2
# barnyard grass [11] = experiment: Test Example 2: weedkilling efficacy, growth period weed treatment in the submerged state; A: barnyard grass
# How it was run: (§3)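 First, alluvial soil in pots is flooded to 4 cm and mixed seed is sown. Next, plants grow in a greenhouse at 25 to 30° C until the 1-2 leaf stage. Then diluted emulsion is applied onto the water surface at the given g/ha rate, and injury is assessed after 3 weeks.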
# barnyard grass [12] = experiment: Test Example 1: weedkilling efficacy, preemergent weed treatment in the submerged state; A: barnyard grass
# How it was run: (§4)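 Alluvial soil in Wagner pots flooded to 4 cm; barnyard grass, bulrush and oval-leafed pondweed seeds sown, then 2.5-leaf rice seedlings transplanted. Same day, emulsified compound diluted in water to set g/ha dosages and applied to water surface; greenhouse 25–30 °C, effect scored by criteria after 3 weeks.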
# wheat [13] = experiment: Test Example 4: foliar treatment, effect on crop; e: wheat
# How it was run: as §2
# Italian ryegrass [14] = experiment: Test Example 3: weedkilling efficacy through soil treatment; I: Italian ryegrass
# How it was run: as §1
# wild oat [15] = experiment: Test Example 3: weedkilling efficacy through soil treatment; G: wild oat
# How it was run: as §1
# oval-leafed pondweed [16] = experiment: Test Example 2: weedkilling efficacy, growth period weed treatment in the submerged state; C: oval-leafed pondweed
# How it was run: as §3
# bulrush [17] = experiment: Test Example 2: weedkilling efficacy, growth period weed treatment in the submerged state; B: bulrush
# How it was run: as §3
# chickweed [18] = experiment: Test Example 3: weedkilling efficacy through soil treatment; N: chickweed
# How it was run: as §1
# fig-leafed goosefoot [19] = experiment: Test Example 3: weedkilling efficacy through soil treatment; M: fig-leafed goosefoot
# How it was run: as §1
# green foxtail [20] = experiment: Test Example 3: weedkilling efficacy through soil treatment; E: green foxtail
# How it was run: as §1
# black-grass [21] = experiment: Test Example 4: weedkilling efficacy by foliar treatment; H: black-grass
# How it was run: as §2
# soybean [22] = experiment: Test Example 4: foliar treatment, effect on crop; d: soybean
# How it was run: as §2
# birds-eye speedwell [23] = experiment: Test Example 4: weedkilling efficacy by foliar treatment; p: birds-eye speedwell
# How it was run: as §2
# rapeseed [24] = experiment: Test Example 3: soil treatment, effect on crop; g: rapeseed
# How it was run: as §1
# common wind-grass [25] = experiment: Test Example 3: weedkilling efficacy through soil treatment; J: common wind-grass
# How it was run: as §1
# black-grass [26] = experiment: Test Example 3: weedkilling efficacy through soil treatment; H: black-grass
# How it was run: as §1
# green foxtail [27] = experiment: Test Example 4: weedkilling efficacy by foliar treatment; E: green foxtail
# How it was run: as §2
# wheat [28] = experiment: Test Example 3: soil treatment, effect on crop; e: wheat
# How it was run: as §1
# oval-leafed pondweed [29] = experiment: Test Example 1: weedkilling efficacy, preemergent weed treatment in the submerged state; C: oval-leafed pondweed
# How it was run: as §4
# crabgrass [30] = experiment: Test Example 4: weedkilling efficacy by foliar treatment; D: crabgrass
# How it was run: as §2
# rapeseed [31] = experiment: Test Example 4: foliar treatment, effect on crop; g: rapeseed
# How it was run: as §2
# transplanted rice = experiment: Test Example 1: preemergent weed treatment in the submerged state, effect on crop; a: transplanted rice
# How it was run: as §4
# catchweed [32] = experiment: Test Example 4: weedkilling efficacy by foliar treatment; O: catchweed
# How it was run: as §2
# redroot pigweed [33] = experiment: Test Example 4: weedkilling efficacy by foliar treatment; L: redroot pigweed
# How it was run: as §2
# chickweed [34] = experiment: Test Example 4: weedkilling efficacy by foliar treatment; N: chickweed
# How it was run: as §2
# directly sown rice [35] = experiment: Test Example 3: soil treatment, effect on crop; b: directly sown rice
# How it was run: as §1
# fig-leafed goosefoot [36] = experiment: Test Example 4: weedkilling efficacy by foliar treatment; M: fig-leafed goosefoot
# How it was run: as §2
# beet [37] = experiment: Test Example 4: foliar treatment, effect on crop; f: beet
# How it was run: as §2
# Indian mallow [38] = experiment: Test Example 4: weedkilling efficacy by foliar treatment; K: Indian mallow
# How it was run: as §2
# Indian mallow [39] = experiment: Test Example 3: weedkilling efficacy through soil treatment; K: Indian mallow
# How it was run: as §1
# catchweed [40] = experiment: Test Example 3: weedkilling efficacy through soil treatment; O: catchweed
# How it was run: as §1
# redroot pigweed [41] = experiment: Test Example 3: weedkilling efficacy through soil treatment; L: redroot pigweed
# How it was run: as §1
# barnyard grass [42] = experiment: Test Example 4: weedkilling efficacy by foliar treatment; F: barnyard grass
# How it was run: as §2
# bulrush [43] = experiment: Test Example 1: weedkilling efficacy, preemergent weed treatment in the submerged state; B: bulrush
# How it was run: as §4
# beet [44] = experiment: Test Example 3: soil treatment, effect on crop; f: beet
# How it was run: as §1
smiles,measurement,setting,value
CC1=C(c2ccccc2)C(=O)N(C(C)(C)C(=O)Nc2cc(C)cc(F)n2)CO1 [B-2-38],F (barnyard grass) weedkilling efficacy grade,barnyard grass [1],"5 (weed kill ratio 90% or more, (practically complete withering))"
same,b (directly sown rice) effect on crop grade,directly sown rice [2],"5 (weed kill ratio 90% or more, (practically complete withering))"
same,d (soybean) effect on crop grade,soybean [3],"4 (weed kill ratio 70% or more, less than 90%)"
same,P (birds-eye speedwell) weedkilling efficacy grade,birds-eye speedwell [4],"5 (weed kill ratio 90% or more, (practically complete withering))"
same,D (crabgrass) weedkilling efficacy grade,crabgrass [5],"5 (weed kill ratio 90% or more, (practically complete withering))"
same,G (wild oat) weedkilling efficacy grade,wild oat [6],"5 (weed kill ratio 90% or more, (practically complete withering))"
same,c (corn) effect on crop grade,corn [7],"5 (weed kill ratio 90% or more, (practically complete withering))"
same,I (Italian ryegrass) weedkilling efficacy grade,Italian ryegrass [8],"5 (weed kill ratio 90% or more, (practically complete withering))"
same,c (corn) effect on crop grade,corn [9],"1 (weed kill ratio 5% or more, less than 20%)"
same,J (common wind-grass) weedkilling efficacy grade,common wind-grass [10],"5 (weed kill ratio 90% or more, (practically complete withering))"
same,A (barnyard grass) weedkilling efficacy grade,barnyard grass [11],"5 (weed kill ratio 90% or more, (practically complete withering))"
same,A (barnyard grass) weedkilling efficacy grade,barnyard grass [12],"5 (weed kill ratio 90% or more, (practically complete withering))"
same,e (wheat) effect on crop grade,wheat [13],"1 (weed kill ratio 5% or more, less than 20%)"
same,I (Italian ryegrass) weedkilling efficacy grade,Italian ryegrass [14],"5 (weed kill ratio 90% or more, (practically complete withering))"
same,G (wild oat) weedkilling efficacy grade,wild oat [15],"5 (weed kill ratio 90% or more, (practically complete withering))"
same,C (oval-leafed pondweed) weedkilling efficacy grade,oval-leafed pondweed [16],"5 (weed kill ratio 90% or more, (practically complete withering))"
same,B (bulrush) weedkilling efficacy grade,bulrush [17],"5 (weed kill ratio 90% or more, (practically complete withering))"
same,N (chickweed) weedkilling efficacy grade,chickweed [18],"4 (weed kill ratio 70% or more, less than 90%)"
same,M (fig-leafed goosefoot) weedkilling efficacy grade,fig-leafed goosefoot [19],"4 (weed kill ratio 70% or more, less than 90%)"
same,E (green foxtail) weedkilling efficacy grade,green foxtail [20],"5 (weed kill ratio 90% or more, (practically complete withering))"
same,H (black-grass) weedkilling efficacy grade,black-grass [21],"5 (weed kill ratio 90% or more, (practically complete withering))"
same,d (soybean) effect on crop grade,soybean [22],"4 (weed kill ratio 70% or more, less than 90%)"
same,P (birds-eye speedwell) weedkilling efficacy grade,birds-eye speedwell [23],"4 (weed kill ratio 70% or more, less than 90%)"
same,g (rapeseed) effect on crop grade,rapeseed [24],"4 (weed kill ratio 70% or more, less than 90%)"
same,J (common wind-grass) weedkilling efficacy grade,common wind-grass [25],"5 (weed kill ratio 90% or more, (practically complete withering))"
same,H (black-grass) weedkilling efficacy grade,black-grass [26],"5 (weed kill ratio 90% or more, (practically complete withering))"
same,E (green foxtail) weedkilling efficacy grade,green foxtail [27],"5 (weed kill ratio 90% or more, (practically complete withering))"
same,e (wheat) effect on crop grade,wheat [28],0 (weed kill ratio 5% or less (practically no effect))
same,C (oval-leafed pondweed) weedkilling efficacy grade,oval-leafed pondweed [29],"5 (weed kill ratio 90% or more, (practically complete withering))"
same,D (crabgrass) weedkilling efficacy grade,crabgrass [30],"5 (weed kill ratio 90% or more, (practically complete withering))"
same,g (rapeseed) effect on crop grade,rapeseed [31],"4 (weed kill ratio 70% or more, less than 90%)"
same,a (transplanted rice) effect on crop grade,transplanted rice,"3 (weed kill ratio 40% or more, less than 70%)"
same,O (catchweed) weedkilling efficacy grade,catchweed [32],"4 (weed kill ratio 70% or more, less than 90%)"
same,L (redroot pigweed) weedkilling efficacy grade,redroot pigweed [33],"4 (weed kill ratio 70% or more, less than 90%)"
same,N (chickweed) weedkilling efficacy grade,chickweed [34],"4 (weed kill ratio 70% or more, less than 90%)"
same,b (directly sown rice) effect on crop grade,directly sown rice [35],"5 (weed kill ratio 90% or more, (practically complete withering))"
same,M (fig-leafed goosefoot) weedkilling efficacy grade,fig-leafed goosefoot [36],"4 (weed kill ratio 70% or more, less than 90%)"
same,f (beet) effect on crop grade,beet [37],"4 (weed kill ratio 70% or more, less than 90%)"
same,K (Indian mallow) weedkilling efficacy grade,Indian mallow [38],"4 (weed kill ratio 70% or more, less than 90%)"
same,K (Indian mallow) weedkilling efficacy grade,Indian mallow [39],"1 (weed kill ratio 5% or more, less than 20%)"
same,O (catchweed) weedkilling efficacy grade,catchweed [40],"5 (weed kill ratio 90% or more, (practically complete withering))"
same,L (redroot pigweed) weedkilling efficacy grade,redroot pigweed [41],"3 (weed kill ratio 40% or more, less than 70%)"
same,F (barnyard grass) weedkilling efficacy grade,barnyard grass [42],"5 (weed kill ratio 90% or more, (practically complete withering))"
same,B (bulrush) weedkilling efficacy grade,bulrush [43],"5 (weed kill ratio 90% or more, (practically complete withering))"
same,f (beet) effect on crop grade,beet [44],"4 (weed kill ratio 70% or more, less than 90%)"
